Measured values from PMC6199309, “A therapeutic approach to pantothenate kinase associated neurodegeneration” (Nature Communications, 2018).

Tests used:
Experiment in all cases: KINOMEscan
Type in all cases: binding
Details in all cases: read-out: %Ctrl @ 10000nM
[1] = target: T1, ABL1(T315I)-nonphosphorylated (Homo sapiens, UniProt P00519, T315I)
T1 construct: purchased DiscoverX KINOMEscan

ACVR2B = target: T2, ACVR2B (Homo sapiens, UniProt Q13705)
T2 construct: purchased DiscoverX KINOMEscan

AURKB = target: T3, AURKB (Homo sapiens, UniProt Q96GD4)
T3 construct: purchased DiscoverX KINOMEscan

CSF1R = target: T4, CSF1R (Homo sapiens, UniProt P07333)
T4 construct: purchased DiscoverX KINOMEscan

CSK = target: T5, CSK (Homo sapiens, UniProt P41240)
T5 construct: purchased DiscoverX KINOMEscan

DAPK3 = target: T6, DAPK3 (Homo sapiens, UniProt O43293)
T6 construct: purchased DiscoverX KINOMEscan
T6 sequence (O43293 whole entry): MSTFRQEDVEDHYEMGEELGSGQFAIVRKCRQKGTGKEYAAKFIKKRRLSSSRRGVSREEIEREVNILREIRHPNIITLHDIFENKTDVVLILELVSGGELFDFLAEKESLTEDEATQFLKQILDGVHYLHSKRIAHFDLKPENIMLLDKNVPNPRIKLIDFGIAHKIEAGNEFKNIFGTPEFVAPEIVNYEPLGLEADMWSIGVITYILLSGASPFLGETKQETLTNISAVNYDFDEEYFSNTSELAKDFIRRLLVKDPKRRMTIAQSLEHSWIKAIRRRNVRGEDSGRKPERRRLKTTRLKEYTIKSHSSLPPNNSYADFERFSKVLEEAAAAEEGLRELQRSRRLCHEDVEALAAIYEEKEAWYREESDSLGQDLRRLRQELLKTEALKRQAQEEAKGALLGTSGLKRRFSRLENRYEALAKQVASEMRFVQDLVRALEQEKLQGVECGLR

EPHA3 = target: T7, EPHA3 (Homo sapiens, UniProt P29320)
T7 construct: purchased DiscoverX KINOMEscan

ERBB4 = target: T8, ERBB4 (Homo sapiens, UniProt Q15303)
T8 construct: purchased DiscoverX KINOMEscan

FLT3-autoinhibited = target: T9, FLT3-autoinhibited (Homo sapiens, UniProt P36888)
T9 construct: purchased DiscoverX KINOMEscan

GRK4 = target: T10, GRK4 (Homo sapiens, UniProt P32298)
T10 construct: purchased DiscoverX KINOMEscan

IRAK1 = target: T11, IRAK1 (Homo sapiens, UniProt P51617)
T11 construct: purchased DiscoverX KINOMEscan
T11 sequence (P51617 whole entry): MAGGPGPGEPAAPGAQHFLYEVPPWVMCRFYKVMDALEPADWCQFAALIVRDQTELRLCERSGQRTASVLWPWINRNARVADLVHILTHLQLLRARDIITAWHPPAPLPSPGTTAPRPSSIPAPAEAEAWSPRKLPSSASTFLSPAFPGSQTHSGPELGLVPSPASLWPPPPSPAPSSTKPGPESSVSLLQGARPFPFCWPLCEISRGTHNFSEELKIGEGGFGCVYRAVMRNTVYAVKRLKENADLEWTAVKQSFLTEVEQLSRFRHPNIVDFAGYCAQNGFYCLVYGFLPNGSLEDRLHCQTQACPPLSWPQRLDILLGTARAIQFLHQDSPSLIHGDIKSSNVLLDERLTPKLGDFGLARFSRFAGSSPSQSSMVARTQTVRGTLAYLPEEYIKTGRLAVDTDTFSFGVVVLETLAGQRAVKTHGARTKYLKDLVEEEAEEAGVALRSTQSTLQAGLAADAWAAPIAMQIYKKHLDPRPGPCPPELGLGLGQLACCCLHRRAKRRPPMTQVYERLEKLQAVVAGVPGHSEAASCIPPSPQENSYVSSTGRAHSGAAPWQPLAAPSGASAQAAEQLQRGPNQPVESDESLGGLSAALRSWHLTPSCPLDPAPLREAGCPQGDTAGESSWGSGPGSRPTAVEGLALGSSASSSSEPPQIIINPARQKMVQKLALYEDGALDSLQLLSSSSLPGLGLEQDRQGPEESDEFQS

JNK3 = target: T12, JNK3 (Homo sapiens, UniProt P53779)
T12 construct: purchased DiscoverX KINOMEscan

LATS1 = target: T13, LATS1 (Homo sapiens, UniProt O95835)
T13 construct: purchased DiscoverX KINOMEscan
T13 sequence (O95835 whole entry): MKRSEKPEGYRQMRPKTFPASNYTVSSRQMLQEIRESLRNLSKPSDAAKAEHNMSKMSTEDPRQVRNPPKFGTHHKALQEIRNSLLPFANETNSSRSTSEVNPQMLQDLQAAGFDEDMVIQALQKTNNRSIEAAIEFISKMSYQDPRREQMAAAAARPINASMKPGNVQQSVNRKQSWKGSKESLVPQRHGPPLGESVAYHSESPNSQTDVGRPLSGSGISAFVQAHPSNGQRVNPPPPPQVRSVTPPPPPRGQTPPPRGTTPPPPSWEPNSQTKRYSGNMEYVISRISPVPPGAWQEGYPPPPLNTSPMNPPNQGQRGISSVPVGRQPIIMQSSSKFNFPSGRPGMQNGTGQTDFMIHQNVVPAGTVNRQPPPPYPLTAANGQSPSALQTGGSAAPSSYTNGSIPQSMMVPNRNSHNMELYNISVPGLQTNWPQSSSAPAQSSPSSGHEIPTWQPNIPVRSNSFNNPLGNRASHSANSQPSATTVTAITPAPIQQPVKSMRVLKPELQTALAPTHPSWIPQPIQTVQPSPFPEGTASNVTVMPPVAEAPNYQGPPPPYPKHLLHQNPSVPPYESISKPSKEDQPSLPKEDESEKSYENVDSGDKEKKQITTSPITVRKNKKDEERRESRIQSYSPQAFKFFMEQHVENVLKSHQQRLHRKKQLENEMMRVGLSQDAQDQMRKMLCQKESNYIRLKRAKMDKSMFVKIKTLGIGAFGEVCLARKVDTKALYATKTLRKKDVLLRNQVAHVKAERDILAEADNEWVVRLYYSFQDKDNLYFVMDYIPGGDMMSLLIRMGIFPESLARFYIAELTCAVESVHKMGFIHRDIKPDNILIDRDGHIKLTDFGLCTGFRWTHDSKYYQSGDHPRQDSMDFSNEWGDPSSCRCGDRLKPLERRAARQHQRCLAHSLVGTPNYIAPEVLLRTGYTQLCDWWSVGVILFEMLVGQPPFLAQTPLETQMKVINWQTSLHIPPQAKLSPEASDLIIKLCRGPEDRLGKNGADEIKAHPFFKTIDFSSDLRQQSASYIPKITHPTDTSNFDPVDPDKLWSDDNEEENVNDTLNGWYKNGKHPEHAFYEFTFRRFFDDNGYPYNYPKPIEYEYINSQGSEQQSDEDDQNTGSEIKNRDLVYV

MAPKAPK5 = target: T14, MAPKAPK5 (Homo sapiens, UniProt Q8IW41)
T14 construct: purchased DiscoverX KINOMEscan
T14 sequence (Q8IW41 whole entry): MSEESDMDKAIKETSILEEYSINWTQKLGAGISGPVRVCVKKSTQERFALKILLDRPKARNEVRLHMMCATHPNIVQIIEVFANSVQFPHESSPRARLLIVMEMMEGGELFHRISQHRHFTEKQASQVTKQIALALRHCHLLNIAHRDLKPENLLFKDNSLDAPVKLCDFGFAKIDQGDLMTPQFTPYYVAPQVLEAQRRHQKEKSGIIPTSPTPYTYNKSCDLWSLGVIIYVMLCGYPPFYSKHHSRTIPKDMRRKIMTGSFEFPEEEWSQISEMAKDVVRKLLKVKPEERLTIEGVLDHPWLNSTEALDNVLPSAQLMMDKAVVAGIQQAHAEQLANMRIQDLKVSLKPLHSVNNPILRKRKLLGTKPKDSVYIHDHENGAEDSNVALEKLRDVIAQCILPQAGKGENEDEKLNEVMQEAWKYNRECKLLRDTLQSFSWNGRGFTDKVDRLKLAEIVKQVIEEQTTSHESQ

MAST1 = target: T15, MAST1 (Homo sapiens, UniProt Q9Y2H9)
T15 construct: purchased DiscoverX KINOMEscan

MEK5 = target: T16, MEK5 (Homo sapiens, UniProt Q13163)
T16 construct: purchased DiscoverX KINOMEscan
T16 sequence (Q13163 whole entry): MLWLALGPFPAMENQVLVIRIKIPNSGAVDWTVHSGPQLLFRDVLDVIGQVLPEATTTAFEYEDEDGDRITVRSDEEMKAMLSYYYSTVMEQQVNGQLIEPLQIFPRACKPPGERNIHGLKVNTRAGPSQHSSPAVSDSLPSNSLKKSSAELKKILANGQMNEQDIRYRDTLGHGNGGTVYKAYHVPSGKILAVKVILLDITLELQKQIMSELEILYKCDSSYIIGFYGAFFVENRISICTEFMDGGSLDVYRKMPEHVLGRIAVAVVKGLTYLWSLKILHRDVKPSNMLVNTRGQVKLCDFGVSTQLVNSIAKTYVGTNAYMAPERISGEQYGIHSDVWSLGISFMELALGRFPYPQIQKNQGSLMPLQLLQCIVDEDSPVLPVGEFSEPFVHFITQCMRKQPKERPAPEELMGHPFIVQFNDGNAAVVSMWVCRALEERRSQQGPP

MKK7 = target: T17, MKK7 (Homo sapiens, UniProt O14733)
T17 construct: purchased DiscoverX KINOMEscan

MTOR = target: T18, MTOR (Homo sapiens, UniProt P42345)
T18 construct: purchased DiscoverX KINOMEscan

NEK2 = target: T19, NEK2 (Homo sapiens, UniProt P51955)
T19 construct: purchased DiscoverX KINOMEscan
T19 sequence (P51955 whole entry): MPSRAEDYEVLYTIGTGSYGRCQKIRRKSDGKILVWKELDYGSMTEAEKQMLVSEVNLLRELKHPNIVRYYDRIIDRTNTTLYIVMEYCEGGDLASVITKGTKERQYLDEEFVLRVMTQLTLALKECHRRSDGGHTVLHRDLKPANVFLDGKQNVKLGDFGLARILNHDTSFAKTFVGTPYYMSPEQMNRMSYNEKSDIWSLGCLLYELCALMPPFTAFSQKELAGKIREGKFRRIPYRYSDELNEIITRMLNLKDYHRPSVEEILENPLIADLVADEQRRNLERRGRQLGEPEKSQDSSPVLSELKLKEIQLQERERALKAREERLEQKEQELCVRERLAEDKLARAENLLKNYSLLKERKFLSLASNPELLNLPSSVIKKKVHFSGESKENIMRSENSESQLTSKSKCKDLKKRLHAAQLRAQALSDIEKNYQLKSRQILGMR

p38-alpha = target: T20, p38-alpha (Homo sapiens, UniProt Q16539)
T20 construct: purchased DiscoverX KINOMEscan

PDGFRA = target: T21, PDGFRA (Homo sapiens, UniProt P16234)
T21 construct: purchased DiscoverX KINOMEscan

PHKG1 = target: T22, PHKG1 (Homo sapiens, UniProt Q16816)
T22 construct: purchased DiscoverX KINOMEscan

PIK3CA(M1043I) = target: T23, PIK3CA(M1043I) (Homo sapiens, UniProt P42336, M1043I)
T23 construct: purchased DiscoverX KINOMEscan

PIK3CB = target: T24, PIK3CB (Homo sapiens, UniProt P42338)
T24 construct: purchased DiscoverX KINOMEscan

PKN1 = target: T25, PKN1 (Homo sapiens, UniProt Q16512)
T25 construct: purchased DiscoverX KINOMEscan
T25 sequence (Q16512 whole entry): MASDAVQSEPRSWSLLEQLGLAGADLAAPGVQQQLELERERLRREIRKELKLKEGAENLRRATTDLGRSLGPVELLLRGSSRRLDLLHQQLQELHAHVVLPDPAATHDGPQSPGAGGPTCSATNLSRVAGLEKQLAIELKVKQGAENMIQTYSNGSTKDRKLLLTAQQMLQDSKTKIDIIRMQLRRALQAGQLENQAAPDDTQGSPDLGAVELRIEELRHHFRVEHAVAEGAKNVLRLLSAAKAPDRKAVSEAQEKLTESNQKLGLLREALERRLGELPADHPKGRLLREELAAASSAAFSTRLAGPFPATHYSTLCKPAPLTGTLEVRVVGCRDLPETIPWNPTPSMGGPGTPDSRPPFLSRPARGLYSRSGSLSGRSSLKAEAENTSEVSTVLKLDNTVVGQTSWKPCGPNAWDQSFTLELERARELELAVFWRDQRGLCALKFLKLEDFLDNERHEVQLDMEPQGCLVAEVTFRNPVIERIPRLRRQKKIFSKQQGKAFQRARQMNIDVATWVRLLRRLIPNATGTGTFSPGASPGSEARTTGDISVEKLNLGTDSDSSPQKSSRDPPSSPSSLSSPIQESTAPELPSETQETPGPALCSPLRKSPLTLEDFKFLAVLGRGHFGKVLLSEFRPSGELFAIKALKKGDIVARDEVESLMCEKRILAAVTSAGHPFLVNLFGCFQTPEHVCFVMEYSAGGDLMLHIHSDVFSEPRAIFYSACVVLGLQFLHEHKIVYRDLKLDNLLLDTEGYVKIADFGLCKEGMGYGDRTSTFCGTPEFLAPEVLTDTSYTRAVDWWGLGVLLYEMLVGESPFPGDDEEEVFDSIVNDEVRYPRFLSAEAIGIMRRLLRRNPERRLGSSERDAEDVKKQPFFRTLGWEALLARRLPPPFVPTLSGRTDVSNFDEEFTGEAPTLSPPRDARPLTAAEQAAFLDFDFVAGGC

PLK1 = target: T26, PLK1 (Homo sapiens, UniProt P53350)
T26 construct: purchased DiscoverX KINOMEscan

STK35 = target: T27, STK35 (Homo sapiens, UniProt Q8TDR2)
T27 construct: DNA tag for qPCR (T7 phage fusion or DNA label); purchased DiscoverX KdELECT; host or cells: E. coli BL21-derived (T7 phage) or HEK-293

[2] = target: T28, TYK2(JH2domain-pseudokinase) (Homo sapiens, UniProt P29597)
T28 construct: TYK2(JH2domain-pseudokinase); DNA label for qPCR (T7 phage fusion or DNA tag); purchased DiscoverX scanMAX; host or cells: E. coli BL21-derived (T7 phage) or HEK-293
T28 sequence (P29597 589-875 limits assumed): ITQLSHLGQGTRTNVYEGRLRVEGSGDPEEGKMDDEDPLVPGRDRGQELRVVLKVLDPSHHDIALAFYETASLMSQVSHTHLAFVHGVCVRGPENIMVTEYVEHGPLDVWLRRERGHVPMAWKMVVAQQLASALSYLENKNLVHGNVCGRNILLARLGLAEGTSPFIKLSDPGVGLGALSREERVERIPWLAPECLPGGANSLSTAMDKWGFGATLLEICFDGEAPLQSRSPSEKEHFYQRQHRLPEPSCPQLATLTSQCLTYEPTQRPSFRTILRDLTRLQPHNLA

ULK2 = target: T29, ULK2 (Homo sapiens, UniProt Q8IYT8)
T29 construct: DNA label for qPCR (T7 phage fusion or DNA tag); purchased DiscoverX scanMAX; host or cells: E. coli BL21-derived (T7 phage) or HEK-293

CC(C)c1ccc(CC(=O)N2CCN(c3ccc(C#N)nn3)CC2)cc1 [PZ-2891, 6-(4-(2-(4-isopropylphenyl)acetyl)piperazin-1-yl)pyridazine-3-carbonitrile]
remaining binding at 10 µM [1]: 63%
remaining binding at 10 µM (ACVR2B): 100%
remaining binding at 10 µM (AURKB): 89%
remaining binding at 10 µM (CSF1R): 91%
remaining binding at 10 µM (CSK): 97%
remaining binding at 10 µM (DAPK3): 100%
remaining binding at 10 µM (EPHA3): 65%
remaining binding at 10 µM (ERBB4): 100%
remaining binding at 10 µM (FLT3-autoinhibited): 82%
remaining binding at 10 µM (GRK4): 52%
remaining binding at 10 µM (IRAK1): 91%
remaining binding at 10 µM (JNK3): 88%
remaining binding at 10 µM (LATS1): 86%
remaining binding at 10 µM (MAPKAPK5): 74%
remaining binding at 10 µM (MAST1): 61%
remaining binding at 10 µM (MEK5): 69%
remaining binding at 10 µM (MKK7): 84%
remaining binding at 10 µM (MTOR): 68%
remaining binding at 10 µM (NEK2): 88%
remaining binding at 10 µM (p38-alpha): 100%
remaining binding at 10 µM (PDGFRA): 70%
remaining binding at 10 µM (PHKG1): 88%
remaining binding at 10 µM (PIK3CA(M1043I)): 74%
remaining binding at 10 µM (PIK3CB): 65%
remaining binding at 10 µM (PKN1): 69%
remaining binding at 10 µM (PLK1): 85%
remaining binding at 10 µM (STK35): 0.2%
remaining binding at 10 µM [2]: 100%
remaining binding at 10 µM (ULK2): 86%
